Test results as given in patent US20040198770A1, “Uses for l-tetrahydropalmatine” (PharmacoGenetics Limited, priority 2003, published 2004).

How the values were obtained:
Assay type in all cases: in vivo
ICR mice [1] = assay: Elevated plus-maze test; conditions: for Closed arm entry % / Closed arm entry No. / Open arm entry % / Open arm entry No. / Total no. of arm entries: 300 s; for Closed arm Time spent / Closed arm time spent % / Open arm Time spent / Open arm time spent %: 300 s test
Experimental: (§1) ICR mice of male sex, weighing 15.6-17.8 g were used, provided by Experimental Animal Centre of HKUST, housed in groups, given food and water ad libitum and maintained on a 12 hour light: 12 hour dark cycle. All of the experimental groups had 12 animals per group.
(§2) For each experimental animal, administered orally 0.2 ml (pH 7.2) of respective solvent at concentrations as stated above for each group (or double-distilled water for normal control group) one hour before testing.
The elevated plus-maze is made of 0.5 cm thick wood as a horizontal cross consisting of two open arms (25×5 cm) and two opposite arms (25×5 cm) enclosed by 10 cm high walls. The arms extend from a central platform having dimensions of 5×5 cm. The plus-maze is elevated to a height of 40 cm from the floor. The maze is put inside a box with dimensions of 30×30×50 cm. The mice are placed on the central platform of the maze facing a closed arm. The number of arm entries and the time spent in the open and closed arm are counted for 300 seconds (Pellow S. et al., “Anxiolytic and anxiogenic drug effects on exploratory activity in an elevated plus-maze: a novel test of anxiety in the rat”, Pharmacol Biochem Behav. 1986 March; 24(3): 525-9; PMID: 2871560). Arm entry was defined as one half body entered into the arm.

ICR mice [2] = assay: Horizontal-wire test; conditions: for No. of falling: Table 1, mice; for No. of falling / Number of falling: 60 s; for Number of falling: Table 2, mice
Experimental: as §1, §2
Mice are lifted by the tail and allowed to grasp a horizontally strung wire (1 mm diameter, 20 cm long and placed 20 cm above the table) with their forepaws and released (Bonetti E. P. et al., Psychopharmacology (Berl). 1982; 78(1): 8-18; PMID: 6292984). For each experimental animal, the number of falling onto the table in 60 seconds was determined.
There is no significant difference between same dosage l-THP and dl-THP groups.

ICR mice [3] = assay: Locomotor activity test; conditions: for No. of Transitions: mice, 1 h before test, 300 s
Experimental: as §1, §2
An apparatus with a brown light-resistant box having dimensions of 60×60×30 cm was used to perform the test. It consists of four cylindrical plastic boxes of 20 cm diameter, each having 6 equally distributed infrared photocells. The locomotor activity was counted automatically during a 300 second test period. A decrease in the number of transitions reflects a decrease in locomotor activity.
Physical reflections existed for this group and there was no abnormal phenomenon in respiratory circulation.

ICR mice [4] = assay: Hole-board test; conditions: 300 s
Experimental: as §1, §2
The hole-board apparatus is a 0.5 cm thick walled wood arena of 60×60×30 cm, with four 5 cm equidistant 4 cm diameter holes spaced on the floor. The mice are placed on the centre of the arena and the number of head-dip on the hole and the number of rearing are counted during a 300 second test period (File S. E. et al., “The effects of triazolobenzo-diazepines in two animal tests of anxiety and in the holeboard.”, Br J Pharmacol. 1985 November; 86(3): 729-35; PMID: 2866006). After each trial, the floor of the apparatus was wiped and dried thoroughly with tissue to remove traces of the previous path.

[5] = mice, oral 0.5 mg/kg, 0.5 mg/kg

## COc1cc2c(cc1OC)[C@@H]1Cc3ccc(OC)c(OC)c3CN1CC2 [l-THP, l-tetrahydropalmatine]
ICR mice [1]; experimental mice
  Optimal dosage for anxiolytic effect: 1 mg/kg
ICR mice [1]; experimental mice, 5 mg/kg
  medicinal effect under medium dosage: sedative and hypnotic effect
ICR mice [1]; experimental mice, 0.1-2.5 mg/kg
  medicinal effect under low dosage: anxiolytic effect
ICR mice [1]; mice, oral
  most medicinal dosage (time spent and percentage of open arm entry): 1 mg/kg
ICR mice [1]; mice, oral 0.05 mg/kg
  Closed arm entry %: 67.89 ± 6.77%
  Closed arm entry No.: 19.33 ± 5.55
  Open arm entry %: 32.11 ± 6.77%
  Open arm entry No.: 8.75 ± 1.36
  Total no. of arm entries: 28.08 ± 5.62
  Closed arm Time spent: 225.42 ± 12.13
  Closed arm time spent %: 80.96 ± 3.55%
  Open arm Time spent: 53.08 ± 10.40
  Open arm time spent %: 19.04 ± 3.55%
ICR mice [1]; mice, oral 0.1 mg/kg
  number of open arm entry of l-THP greater than dl-THP by: 31.7%
  percentage of open arm entry of l-THP greater than dl-THP by: 40.4%
  Closed arm entry %: 57.17 ± 4.26%
  Closed arm entry No.: 15.27 ± 2.41
  Open arm entry %: 42.83 ± 4.26 %
  Total no. of arm entries: 26.82 ± 4.38
  Closed arm Time spent: 217.27 ± 15.11
  Closed arm time spent %: 76.33 ± 5.61%
  Open arm Time spent: 68.18 ± 20.68
  Open arm time spent %: 23.67 ± 5.61%
ICR mice [1]; mice, oral 0.5 mg/kg
  Closed arm entry %: 58.18 ± 6.37%
  Closed arm entry No.: 16.17 ± 1.95
  Total no. of arm entries: 27.92 ± 4.08
  Closed arm Time spent: 205.33 ± 20.02
  Closed arm time spent %: 74.19 ± 7.09%
  Open arm Time spent: 71.75 ± 21.08
ICR mice [1]; [5]
  Open arm time spent %: 25.81 ± 7.09 %
  Open arm entry %: 41.82 ± 6.37 %
ICR mice [1]; mice, oral 1.0 mg/kg
  Closed arm entry %: 55.53 ± 3.10%
  Closed arm entry No.: 14.92 ± 1.93
  Open arm entry %: 44.47 ± 3.10 %
  Total no. of arm entries: 26.92 ± 3.61
  Closed arm Time spent: 204.00 ± 16.42
  Closed arm time spent %: 71.94 ± 6.70%
ICR mice [1]; mice, oral 1.0 mg/kg, 1 mg/kg
  Open arm time spent %: 28.06 ± 6.70 %
ICR mice [1]; mice, oral 2.5 mg/kg
  Closed arm entry %: 59.61 ± 4.06%
  Closed arm entry No.: 15.92 ± 2.15
  Open arm entry %: 40.39 ± 4.09 %
  Open arm entry No.: 10.92 ± 2.50
  Total no. of arm entries: 26.83 ± 4.20
  Closed arm Time spent: 227.83 ± 12.15
  Closed arm time spent %: 78.04 ± 4.70%
  Open arm Time spent: 64.75 ± 16.70
  Open arm time spent %: 21.96 ± 4.70%
ICR mice [1]; mice, oral 5 mg/kg
  number of open arm entry of l-THP less than dl-THP by: 357.4%
  percentage of open arm entry of l-THP less than dl-THP by: 69.5%
ICR mice [1]; mice, oral 5.0 mg/kg
  Closed arm entry %: 70.37 ± 5.03%
  Closed arm entry No.: 7.83 ± 3.43
  Closed arm Time spent: 253.25 ± 24.32
  Closed arm time spent %: 88.54 ± 5.48%
ICR mice [1]; mice, oral 5.0 mg/kg, 5 mg/kg
  Open arm time spent %: 11.46 ± 5.48 %
  Open arm entry %: 29.63 ± 5.03%
ICR mice [1]; mice, oral 0.1-2.5 mg/kg
  increase of percentage of open arm entry compared to the normal control group: 39.31-48.14%
  increase of percentage of time spent in open arm compared to the normal control group: 27.19-50.78%
ICR mice [2]; oral 0.5 mg/kg
  No. of falling: 0.4 ± 0.49
  Number of falling: 0.40 ± 0.48
ICR mice [2]; oral 1.0 mg/kg
  No. of falling: 0.4 ± 0.48
  Number of falling: 0.40 ± 0.48
ICR mice [2]; oral 5.0 mg/kg
  No. of falling: 0.5 ± 0.67
  Number of falling: 0.50 ± 0.67
ICR mice [2]; oral 10 mg/kg
  No. of falling: 1.0 ± 0.77
  Number of falling: 1.00 ± 0.77
ICR mice [2]; oral 20 mg/kg
  No. of falling: 4.5 ± 1.50
ICR mice [2]; oral 40 mg/kg
  No. of falling: 8.5 ± 3.55
ICR mice [2]; oral 30 mg/kg
  Number of falling: 18.50 ± 3.54
ICR mice [2]; mice, oral
  oral dosage at which there is no myorelaxation effect: less than 20 mg/kg
ICR mice [3]; 20 mg/kg
  medicinal effect under high dosage: inhibitive effect on CNS and myorelaxation
ICR mice [3]; oral 0.5 mg/kg
  No. of Transitions: 121.1 ± 9.53
ICR mice [3]; oral 1.0 mg/kg
  No. of Transitions: 111.3 ± 11.91
ICR mice [3]; oral 5.0 mg/kg
  No. of Transitions: 104.5 ± 10.73
ICR mice [3]; oral 10 mg/kg
  No. of Transitions: 101.4 ± 15.41
ICR mice [3]; oral 20 mg/kg
  No. of Transitions: 53.0 ± 12.72
ICR mice [3]; oral 40 mg/kg
  No. of Transitions: 13.6 ± 5.27
ICR mice [4]; oral 0.05 mg/kg
  Head-dip No.: 15.83 ± 3.01
  Rearing No.: 26.83 ± 5.51
  Total No. (head-dip and rearing): 42.67 ± 6.64
ICR mice [4]; oral 0.1 mg/kg
  Head-dip No.: 18.73 ± 6.56
  Rearing No.: 20.36 ± 9.54
ICR mice [4]; oral 0.5 mg/kg
  Rearing No.: 27.08 ± 13.64
  Total No. (head-dip and rearing): 41.00 ± 10.20
ICR mice [4]; oral 1.0 mg/kg
  Rearing No.: 23.50 ± 9.27
ICR mice [4]; oral 2.5 mg/kg
  Head-dip No.: 15.67 ± 4.00
  Rearing No.: 22.42 ± 4.06
  Total No. (head-dip and rearing): 38.08 ± 6.43
ICR mice [4]; oral 5.0 mg/kg
  Head-dip No.: 8.75 ± 5.56
